Measurements as given in patent US10738028B2, “Spiro three-membered ring, spiro five-membered ring peptide deformylase inhibitor and use thereof in antibacteria and anti-tumor” (priority 2016, dated 2020).
Where two headings read alike, the source gives them in different places.

Assays:
Assay type in all cases: cell-based
[1] = tested on: MGC-803 gastric cancer cell line; test: CCK-8 proliferation inhibition; conditions: Homo sapiens, MGC-803, 72 h, concentration of 30 μM
Procedure, shortened: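 Cells seeded at 2000 cells/well, cultured overnight at 37 °C, 5% CO2, then exposed 72 h to compound dilutions in medium with 10% newborn bovine serum (1‰ DMSO control). Viability read with 1:10 diluted CCK-8 solution. Media: PC3 in F12; MGC-803 and Jurkat in 1640; MCF-7 in DMEM high glucose.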

[2] = tested on: A549 lung cancer cell line; test: CCK-8 proliferation inhibition; conditions: Homo sapiens, A549, 72 h, concentration of 30 μM
Procedure, shortened: (§1)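 Plating at 2000 cells/well, then incubation overnight at 37° C. Next, a range of compound concentrations for 72 hours (control 1‰ DMSO). Finally, medium decanted and CCK-8 diluted 1:10 added.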

[3] = tested on: BEL-7402 liver cancer cell line; test: CCK-8 proliferation inhibition; conditions: Homo sapiens, Bel-7402, 72 h, concentration of 30 μM
Procedure, shortened: as §1

[4] = tested on: methicillin-sensitive Staphylococcus epidermidis (MSSE); test: MIC, two-fold agar dilution (CLSI), clinical isolates
Procedure, shortened: (§2)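 Following the American Clinical and Laboratory Standards Institute procedure, agar two-fold dilution served to determine minimum inhibitory concentrations.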

[5] = tested on: Enterococcus faecium (EFM); test: as above
Procedure, shortened: as §2

[6] = tested on: methicillin-resistant Staphylococcus epidermidis (MRSE); test: as above
Procedure, shortened: as §2

[7] = tested on: methicillin-sensitive Staphylococcus aureus (MSSA); test: as above
Procedure, shortened: as §2

[8] = tested on: Enterococcus faecalis (EFA); test: as above
Procedure, shortened: as §2

[9] = tested on: Escherichia coli (including ESBLs, non-ESBLs); test: as above
Procedure, shortened: as §2

[10] = tested on: Moraxella catarrhalis (BCA); test: as above
Procedure, shortened: as §2

[11] = tested on: Streptococcus pneoumoniae (SPN); test: as above
Procedure, shortened: as §2

[12] = tested on: methicillin-resistant Staphylococcus aureus (MRSA); test: as above
Procedure, shortened: as §2

[13] = tested on: HCT-116 colorectal cancer cell line; test: CCK-8 proliferation inhibition; conditions: Homo sapiens, HCT-116, 72 h, concentration of 30 μM, 72 hours, CCK-8
Procedure, shortened: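 Cells seeded at 2000 cells/well, cultured overnight at 37 °C, 5% CO2, then exposed to compound (DMSO; control 1‰ DMSO) for 72 h in McCoy's 5A with 10% newborn bovine serum. Viability read with 1:10 diluted CCK-8.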

## Cc1cc(NC(=O)[C@@H]2CC3(CC3)CN2C(=O)[C@@H](CC(=O)NO)CC2CCCC2)no1 [Example 71]
[1]
  inhibition at 30 µM: 34%
[2]
  inhibition at 30 µM: 5%
[3]
  inhibition at 30 µM: 49%
[4]; clinical isolate MSSE 15-3
  Anti-bacterial activity (MIC), strain MSSE 15-3: 0.16 µg/mL
[4]; clinical isolate MSSE 15-4
  Anti-bacterial activity (MIC), strain MSSE 15-4: 0.06 µg/mL
[4]; clinical isolate MSSE 15-5
  Anti-bacterial activity (MIC), strain MSSE 15-5: 0.06 µg/mL
[4]; clinical isolate MSSE 15-6
  Anti-bacterial activity (MIC), strain MSSE 15-6: 0.06 µg/mL
[5]; strain EFM 15-1
  Anti-bacterial activity (MIC): 0.5 µg/mL
[5]; strain EFM 15-2
  Anti-bacterial activity (MIC): 2 µg/mL
[5]; strain EFM 15-3
  Anti-bacterial activity (MIC): 0.25 µg/mL
[5]; strain EFM 15-4
  Anti-bacterial activity (MIC): 2 µg/mL
[5]; strain EFM 15-5
  Anti-bacterial activity (MIC): 0.125 µg/mL
[5]; strain EFM 15-6
  Anti-bacterial activity (MIC): 0.5 µg/mL
[6]; clinical isolate MRSE 15-1
  Anti-bacterial activity (MIC), strain MRSE 15-1: 0.06 µg/mL
[6]; clinical isolate MRSE 15-2
  Anti-bacterial activity (MIC), strain MRSE 15-2: 0.125 µg/mL
[6]; clinical isolate MRSE 15-3
  Anti-bacterial activity (MIC), strain MRSE 15-3: 0.125 µg/mL
[6]; clinical isolate MRSE 15-7
  Anti-bacterial activity (MIC), strain MRSE 15-7: 0.25 µg/mL
[7]; clinical isolate MSSA 15-3
  Anti-bacterial activity (MIC), strain MSSA 15-3: 0.25 µg/mL
[7]; clinical isolate MSSA 15-4
  Anti-bacterial activity (MIC), strain MSSA 15-4: 0.125 µg/mL
[7]; clinical isolate MSSA 15-5
  Anti-bacterial activity (MIC), strain MSSA 15-5: 0.06 µg/mL
[7]; clinical isolate MSSA 15-6
  Anti-bacterial activity (MIC), strain MSSA 15-6: 0.25 µg/mL
[8]; strain EFA 15-1
  Anti-bacterial activity (MIC): 2 µg/mL
[8]; strain EFA 15-2
  Anti-bacterial activity (MIC): 2 µg/mL
[8]; strain EFA 15-3
  Anti-bacterial activity (MIC): 0.5 µg/mL
[8]; strain EFA 15-4
  Anti-bacterial activity (MIC): 2 µg/mL
[8]; strain EFA 15-5
  Anti-bacterial activity (MIC): 2 µg/mL
[8]; strain EFA 15-6
  Anti-bacterial activity (MIC): 2 µg/mL
[8]; strain EFA 15-9
  Anti-bacterial activity (MIC): 1 µg/mL
[9]; clinical isolate ECO+ 15-1
  Anti-bacterial activity (MIC), strain ECO+ 15-1: 16 µg/mL
[9]; clinical isolate ECO+ 15-2
  Anti-bacterial activity (MIC), strain ECO+ 15-2: 16 µg/mL
[9]; clinical isolate ECO+ 15-3
  Anti-bacterial activity (MIC), strain ECO+ 15-3: 32 µg/mL
[9]; clinical isolate ECO+ 15-4
  Anti-bacterial activity (MIC), strain ECO+ 15-4: 32 µg/mL
[9]; clinical isolate ECO− 15-1
  Anti-bacterial activity (MIC), strain ECO− 15-1: 16 µg/mL
[9]; clinical isolate ECO− 15-2
  Anti-bacterial activity (MIC), strain ECO− 15-2: 16 µg/mL
[9]; clinical isolate ECO− 15-3
  Anti-bacterial activity (MIC), strain ECO− 15-3: 16 µg/mL
[9]; clinical isolate ECO− 15-4
  Anti-bacterial activity (MIC), strain ECO− 15-4: 32 µg/mL
[10]; strain BCA 14-1
  Anti-bacterial activity (MIC): 0.5 µg/mL
[10]; strain BCA 14-4
  Anti-bacterial activity (MIC): 0.5 µg/mL
[10]; strain BCA 14-5
  Anti-bacterial activity (MIC): 0.25 µg/mL
[10]; strain BCA 14-6
  Anti-bacterial activity (MIC): 0.5 µg/mL
[10]; strain BCA 14-7
  Anti-bacterial activity (MIC): 0.5 µg/mL
[10]; strain BCA 14-8
  Anti-bacterial activity (MIC): 0.25 µg/mL
[10]; strain BCA 14-10
  Anti-bacterial activity (MIC): 0.125 µg/mL
[11]; strain SPN 16-2
  Anti-bacterial activity (MIC): 2 µg/mL
[11]; strain SPN 16-4
  Anti-bacterial activity (MIC): 0.25 µg/mL
[12]; clinical isolate MRSA 15-1
  Anti-bacterial activity (MIC), strain MRSA 15-1: 0.125 µg/mL
[12]; clinical isolate MRSA 15-2
  Anti-bacterial activity (MIC), strain MRSA 15-2: 1 µg/mL
[12]; clinical isolate MRSA 15-3
  Anti-bacterial activity (MIC), strain MRSA 15-3: 0.125 µg/mL
[12]; clinical isolate MRSA 15-4
  Anti-bacterial activity (MIC), strain MRSA 15-4: 0.5 µg/mL
[13]; Table 5, read-out: Inhibition of proliferation, Colorectal cancer HCT116
  inhibition at 30 µM: ≥ 30%
[13]; read-out: HCT116 inhibition rate/%
  inhibition at 30 µM: 30%
